This note sets out measurements from ChEMBL document CHEMBL3112424, “Discovery and optimization of pyrimidone indoline amide PI3Kβ inhibitors for the treatment of phosphatase and tensin homologue (PTEN)-deficient cancers” (J Med Chem, 2014).

≈ marks a conversion by molar mass, not a printed value.

Data set [1] concerns PC-3. Briefly: Antitumor activity against po dosed PTEN-deficient human PC3 cells xenografted in nude mouse assessed as tumor growth inhibition administered as qd measured for 52 days. It is filed as functional. A general note: Xenograft models place foreign cells or tissue in a host animal.
Data set [2] has as its target Cytochrome P450 3A4 (Homo sapiens, UniProt P08684). Description: Inhibition of recombinant human CYP3A4.
Data set [3] can be described thus: Metabolic stability in human liver microsomes at 5 uM after 20 mins. To be noted: liver microsomes.
The nature of data set [4]: Metabolic stability in mouse liver microsomes at 5 uM after 20 mins. To be noted: liver microsomes. A general note: Microsomes from liver hold many membrane-bound enzymes, among them those of drug oxidation.
The nature of data set [5]: Lipophilicity, log D of the compound. It is filed as physicochemical. Particulars: octanol/water.
Data set [6] is described as follows: Dissociation constant, pKa of the compound. It is filed as physicochemical.
Data set [7] can be described thus: Apparent permeability in human Caco2 cells at 5 uM after 20 mins. Particulars: Caco-2.
Data set [8] can be described thus: Solubility of the compound in phosphate buffer at pH 7.4 by HPLC analysis. Particulars: phosphate buffer.
The target of data set [9] is T1, Phosphatidylinositol 4,5-bisphosphate 3-kinase catalytic subunit beta isoform (Homo sapiens, UniProt P42338). Description: Inhibition of PI3Kbeta-mediated Akt phosphorylation at S473 in PTEN-deficient human PC3 cells after 0.5 to 2 hrs by Immunoblotting assay. It is filed as cell-based, PC-3.
T1 sequence (P42338 whole entry, canonical isoform): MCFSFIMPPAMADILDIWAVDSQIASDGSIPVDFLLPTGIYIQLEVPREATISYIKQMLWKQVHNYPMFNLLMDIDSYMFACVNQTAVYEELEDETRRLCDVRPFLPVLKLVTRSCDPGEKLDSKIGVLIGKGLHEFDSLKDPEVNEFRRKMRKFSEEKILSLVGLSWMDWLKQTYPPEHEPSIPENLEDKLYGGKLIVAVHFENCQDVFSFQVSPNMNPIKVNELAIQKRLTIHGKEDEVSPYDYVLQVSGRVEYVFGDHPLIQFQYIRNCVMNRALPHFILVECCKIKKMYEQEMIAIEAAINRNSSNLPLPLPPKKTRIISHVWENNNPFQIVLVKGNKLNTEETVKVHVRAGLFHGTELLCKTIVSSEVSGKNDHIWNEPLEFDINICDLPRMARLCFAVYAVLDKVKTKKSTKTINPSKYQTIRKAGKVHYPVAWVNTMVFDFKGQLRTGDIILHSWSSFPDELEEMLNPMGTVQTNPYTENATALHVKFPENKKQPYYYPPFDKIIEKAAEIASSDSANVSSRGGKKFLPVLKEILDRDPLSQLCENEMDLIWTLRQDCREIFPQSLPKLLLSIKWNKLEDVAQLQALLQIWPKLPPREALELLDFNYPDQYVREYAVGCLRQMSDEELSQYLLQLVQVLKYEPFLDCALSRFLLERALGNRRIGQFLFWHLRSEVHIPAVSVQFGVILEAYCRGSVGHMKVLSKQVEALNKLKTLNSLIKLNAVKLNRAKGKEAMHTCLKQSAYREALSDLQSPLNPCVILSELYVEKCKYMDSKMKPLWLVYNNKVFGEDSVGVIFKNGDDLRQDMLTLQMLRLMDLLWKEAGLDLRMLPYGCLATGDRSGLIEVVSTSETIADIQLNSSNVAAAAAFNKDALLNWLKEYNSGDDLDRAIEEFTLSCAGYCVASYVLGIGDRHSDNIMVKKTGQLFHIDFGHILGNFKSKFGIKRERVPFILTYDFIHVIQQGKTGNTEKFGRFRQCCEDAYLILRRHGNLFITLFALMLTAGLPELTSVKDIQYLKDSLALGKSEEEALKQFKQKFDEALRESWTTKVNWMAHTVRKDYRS
Data set [10] has as its target Phosphatidylinositol 4,5-bisphosphate 3-kinase catalytic subunit gamma isoform (Homo sapiens, UniProt P48736). Briefly: Inhibition of C-terminal ploy-His-tagged human PI3Kgamma expressed in baculovirus-infected sf9 cells using PI(4,5)P2 as substrate after 15 mins by HTRF assay. (In general: TR-FRET usually uses a lanthanide donor and a delayed reading to cut background.)

Data set [11] concerns the target T2, Phosphatidylinositol 4,5-bisphosphate 3-kinase catalytic subunit delta isoform (Homo sapiens, UniProt O00329).
T2 sequence (O00329 whole entry): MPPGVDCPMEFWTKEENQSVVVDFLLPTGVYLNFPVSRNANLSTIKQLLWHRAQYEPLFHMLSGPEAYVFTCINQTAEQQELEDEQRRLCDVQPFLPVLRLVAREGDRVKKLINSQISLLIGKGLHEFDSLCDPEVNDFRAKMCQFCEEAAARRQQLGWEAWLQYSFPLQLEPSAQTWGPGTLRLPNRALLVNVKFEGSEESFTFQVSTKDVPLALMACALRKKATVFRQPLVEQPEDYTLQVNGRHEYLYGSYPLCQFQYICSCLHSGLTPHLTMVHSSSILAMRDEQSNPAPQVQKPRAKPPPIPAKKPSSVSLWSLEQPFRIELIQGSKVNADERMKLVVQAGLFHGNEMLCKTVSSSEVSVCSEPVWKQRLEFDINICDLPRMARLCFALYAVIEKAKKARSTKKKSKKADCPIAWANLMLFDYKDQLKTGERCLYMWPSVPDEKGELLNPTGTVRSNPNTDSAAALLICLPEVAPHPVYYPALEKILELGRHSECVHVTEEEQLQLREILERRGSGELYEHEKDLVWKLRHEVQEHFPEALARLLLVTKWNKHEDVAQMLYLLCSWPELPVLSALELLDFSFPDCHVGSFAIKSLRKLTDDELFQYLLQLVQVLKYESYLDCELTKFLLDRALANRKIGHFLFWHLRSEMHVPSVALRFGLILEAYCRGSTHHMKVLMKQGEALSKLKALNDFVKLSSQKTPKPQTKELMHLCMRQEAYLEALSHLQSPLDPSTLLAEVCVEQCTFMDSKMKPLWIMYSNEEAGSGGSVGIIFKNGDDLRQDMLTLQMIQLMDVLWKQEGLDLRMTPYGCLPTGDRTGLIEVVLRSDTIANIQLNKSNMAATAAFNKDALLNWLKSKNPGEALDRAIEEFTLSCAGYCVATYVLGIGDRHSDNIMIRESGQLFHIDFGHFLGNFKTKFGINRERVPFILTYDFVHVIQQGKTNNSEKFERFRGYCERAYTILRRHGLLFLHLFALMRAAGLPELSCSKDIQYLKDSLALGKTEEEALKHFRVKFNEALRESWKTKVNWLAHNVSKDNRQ
Description: Inhibition of N-terminal ploy-His-tagged human PI3Kdelta expressed in baculovirus-infected sf9 cells using PI(4,5)P2 as substrate after 15 mins by HTRF assay.

Data set [12] addresses T1, Phosphatidylinositol 4,5-bisphosphate 3-kinase catalytic subunit beta isoform. Briefly: Inhibition of N-terminal ploy-His-tagged human PI3Kbeta expressed in baculovirus-infected sf21 cells using PI(4,5)P2 as substrate after 15 mins by HTRF assay.
Data set [13] concerns the target Phosphatidylinositol 4,5-bisphosphate 3-kinase catalytic subunit alpha isoform (Homo sapiens, UniProt P42336). Briefly: Inhibition of N-terminal ploy-His-tagged human PI3Kalpha expressed in baculovirus-infected sf9 cells using PI(4,5)P2 as substrate after 15 mins by HTRF assay.

Phosphatidylinositol 4,5-bisphosphate 3-kinase catalytic subunit gamma isoform, sequence (P48736 whole entry, canonical isoform): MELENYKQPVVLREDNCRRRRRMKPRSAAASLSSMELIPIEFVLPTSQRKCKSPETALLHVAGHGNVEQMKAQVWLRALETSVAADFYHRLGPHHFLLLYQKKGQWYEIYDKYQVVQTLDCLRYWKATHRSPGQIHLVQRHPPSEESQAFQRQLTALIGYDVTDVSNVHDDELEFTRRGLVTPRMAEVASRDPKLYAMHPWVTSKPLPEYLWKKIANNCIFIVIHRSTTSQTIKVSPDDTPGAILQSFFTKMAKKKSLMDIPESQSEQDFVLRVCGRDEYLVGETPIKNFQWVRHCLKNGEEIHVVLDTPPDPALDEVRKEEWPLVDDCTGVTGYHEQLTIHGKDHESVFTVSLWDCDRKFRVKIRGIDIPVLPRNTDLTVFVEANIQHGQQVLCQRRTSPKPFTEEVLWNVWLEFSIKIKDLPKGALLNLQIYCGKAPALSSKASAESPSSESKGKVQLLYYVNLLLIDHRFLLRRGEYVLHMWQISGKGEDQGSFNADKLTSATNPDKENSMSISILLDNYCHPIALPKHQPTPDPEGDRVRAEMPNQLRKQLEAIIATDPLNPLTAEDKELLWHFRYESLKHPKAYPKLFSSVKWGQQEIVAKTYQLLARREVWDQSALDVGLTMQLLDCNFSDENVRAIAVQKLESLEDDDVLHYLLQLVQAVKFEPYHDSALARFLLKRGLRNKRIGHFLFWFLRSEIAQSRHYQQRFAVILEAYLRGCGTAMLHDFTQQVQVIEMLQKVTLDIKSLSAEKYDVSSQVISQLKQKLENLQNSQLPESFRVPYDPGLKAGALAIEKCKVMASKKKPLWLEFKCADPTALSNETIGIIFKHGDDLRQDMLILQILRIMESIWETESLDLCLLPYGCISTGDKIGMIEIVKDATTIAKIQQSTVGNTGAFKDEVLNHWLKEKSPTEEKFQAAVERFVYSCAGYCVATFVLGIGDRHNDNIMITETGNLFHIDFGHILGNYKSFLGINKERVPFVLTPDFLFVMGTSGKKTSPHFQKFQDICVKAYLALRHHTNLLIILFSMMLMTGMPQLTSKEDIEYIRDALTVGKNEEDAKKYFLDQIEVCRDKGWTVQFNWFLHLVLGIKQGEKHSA
Phosphatidylinositol 4,5-bisphosphate 3-kinase catalytic subunit alpha isoform, sequence (P42336 whole entry, canonical isoform): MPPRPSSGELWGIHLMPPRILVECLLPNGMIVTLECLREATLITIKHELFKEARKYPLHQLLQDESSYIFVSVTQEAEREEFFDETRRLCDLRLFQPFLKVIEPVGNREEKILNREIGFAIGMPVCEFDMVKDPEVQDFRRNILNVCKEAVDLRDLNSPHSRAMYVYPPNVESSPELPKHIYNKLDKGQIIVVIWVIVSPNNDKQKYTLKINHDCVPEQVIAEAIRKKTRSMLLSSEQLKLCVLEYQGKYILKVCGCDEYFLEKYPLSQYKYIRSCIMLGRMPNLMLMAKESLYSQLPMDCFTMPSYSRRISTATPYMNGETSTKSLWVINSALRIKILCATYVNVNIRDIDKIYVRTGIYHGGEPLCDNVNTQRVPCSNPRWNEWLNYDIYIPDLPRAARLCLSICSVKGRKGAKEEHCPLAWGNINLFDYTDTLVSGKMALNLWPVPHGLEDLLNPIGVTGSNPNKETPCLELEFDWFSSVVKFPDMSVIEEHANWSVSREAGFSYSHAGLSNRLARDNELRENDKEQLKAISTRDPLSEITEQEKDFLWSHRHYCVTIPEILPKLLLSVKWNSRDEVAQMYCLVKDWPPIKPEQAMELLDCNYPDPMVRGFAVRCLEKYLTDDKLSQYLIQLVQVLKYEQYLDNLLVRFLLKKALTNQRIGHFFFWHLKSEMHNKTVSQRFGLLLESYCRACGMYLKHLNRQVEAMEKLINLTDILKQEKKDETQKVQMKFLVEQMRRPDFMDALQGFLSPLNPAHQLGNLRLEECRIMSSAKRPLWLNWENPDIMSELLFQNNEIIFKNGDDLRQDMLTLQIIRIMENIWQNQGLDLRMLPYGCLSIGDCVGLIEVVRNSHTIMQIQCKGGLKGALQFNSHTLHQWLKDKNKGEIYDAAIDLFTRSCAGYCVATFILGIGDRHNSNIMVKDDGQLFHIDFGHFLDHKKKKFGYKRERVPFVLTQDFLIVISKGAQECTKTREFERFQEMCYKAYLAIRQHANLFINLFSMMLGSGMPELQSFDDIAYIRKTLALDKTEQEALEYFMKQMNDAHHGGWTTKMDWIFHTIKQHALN
Cytochrome P450 3A4, sequence (P08684 whole entry): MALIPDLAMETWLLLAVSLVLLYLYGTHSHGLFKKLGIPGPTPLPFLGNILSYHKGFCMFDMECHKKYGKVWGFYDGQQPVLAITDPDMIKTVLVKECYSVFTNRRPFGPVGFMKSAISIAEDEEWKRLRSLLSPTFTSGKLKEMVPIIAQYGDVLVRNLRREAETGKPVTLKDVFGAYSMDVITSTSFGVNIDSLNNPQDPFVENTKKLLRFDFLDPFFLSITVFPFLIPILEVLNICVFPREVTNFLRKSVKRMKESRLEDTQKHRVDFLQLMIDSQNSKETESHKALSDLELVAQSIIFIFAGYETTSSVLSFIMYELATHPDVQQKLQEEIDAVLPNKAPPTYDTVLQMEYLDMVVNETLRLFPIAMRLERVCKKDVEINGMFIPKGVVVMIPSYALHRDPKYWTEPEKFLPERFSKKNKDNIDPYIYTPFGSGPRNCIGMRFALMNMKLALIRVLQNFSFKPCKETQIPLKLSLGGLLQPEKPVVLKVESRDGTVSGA

The term T/C denotes the result in the treated group divided by that in the control group, in per cent. In the case of `C[C@H]1c2cccc(O)c2C(=O)C2=C(O)[C@]3(O)C(=O)C(C(N)=O)=C(O)[C@@H](N(C)C)[C@@H]3[C@@H](O)[C@@H]21.O` [DOXYCYCLINE], the T/C in [1] was 49%.
In general, IC50 refers to the concentration needed to halve the response being measured. Broadly, the amount remaining is the share of the starting amount still present when the sample was taken. Read a low amount remaining as more turnover. What is called logD is lipophilicity at a set pH, counting ionised and neutral species. In general, pKa refers to the pH at which an ionisable group is half protonated. Low readings indicate a stronger acid or weaker base, high ones a weaker acid or stronger base. As a reminder, the Papp is the rate of passage across a membrane or cell layer, normalised by area and donor concentration. What is called solubility is the concentration that dissolves in the medium under given conditions. Read a high solubility as much dissolved substance. Consider `O=C(Cc1nc(N2CCOCC2)cc(=O)[nH]1)N1CCc2c(-c3ccncc3)cccc21`, for which the IC50 stood at 31 µM in [2]; 0.094 µM in [9]; 1 µM in [10]; 0.022 µM in data set [11]; 0.01 µM in data set [12]; 1 µM in data set [13]. Besides, the share remaining at 20 min, 5 µM came out at 43% in data set [3] and 44% in [4]. This molecule also showed a logD in data set [5] of 1.99. Further, the pKa in [6] turned out to be 4.5. The Papp at 20 min, 5 µM in data set [7] was determined as 0.4 ×10⁻⁶ cm/s. In data set [8], this molecule gave a solubility of 69 µM (≈ 28.8 µg/mL).
In the case of `O=C(Cc1nc(N2CCOCC2)cc(=O)[nH]1)N1CCc2c(-c3cccnc3)cccc21`, the half-inhibitory concentration (IC50) in data set [2] came out at 40 µM; in [9], 0.053 µM; in [10], 2.46 µM; in data set [11], 0.007 µM; in data set [12], 0.017 µM; in [13], 0.361 µM. The fraction remaining at 20 min, 5 µM in data set [3] stood at 29%; in data set [4] it was 49%. In data set [5], this molecule registered a logD of 1.99. The molecule further gave a pKa in data set [6] of 4.5. Besides, in [7], the Papp at 20 min, 5 µM was 0.8 ×10⁻⁶ cm/s. The solubility in [8] was 60 µM (≈ 25 µg/mL).
Consider `O=C(Cc1nc(N2CCOCC2)cc(=O)[nH]1)N1CCc2c(OC(F)(F)F)cccc21`, for which the IC50 in [2] amounted to 40 µM; in data set [9] it was 0.054 µM; in data set [10] it was 7.42 µM; in data set [11], 0.034 µM; in data set [12], 0.033 µM; in data set [13], 1 µM. The share remaining at 20 min, 5 µM in [3] is 48%; in [4] it was 44%. Further, the Papp at 20 min, 5 µM in data set [7] worked out at 4.1 ×10⁻⁶ cm/s. Besides, the solubility in data set [8] worked out at 12 µM (≈ 5.09 µg/mL).
As to `O=C(Cc1nc(N2CCOCC2)cc(=O)[nH]1)N1CCc2c1cccc2C(F)(F)F`, the IC50 in data set [2] worked out at 40 µM; in [9] it was 0.009 µM; in [10], 8.4 µM; in [11], 0.098 µM; in data set [12], 0.01 µM; in [13], 0.39 µM. The figures for the fraction remaining at 20 min, 5 µM in [3] and in data set [4] were 24% and 13%, respectively. In addition, the Papp at 20 min, 5 µM in data set [7] worked out at 4.6 ×10⁻⁶ cm/s. Besides, the solubility in [8] came to 12 µM (≈ 4.9 µg/mL).
